What all share (assay type): in vivo
The nature of series [1]: Serum KRN7000 levels by LC-MS/MS after intravenous administration to HCV-infected chimpanzees. As to conditions: for Concentration in blood (serum KRN7000 level): before administration; for concentration at 15 min / concentration at 6 h: chimpanzee, serum, iv, 10 μg/kg, read-out: Concentration in blood (serum KRN7000 level); for concentration at 15 min: 15 minutes later; for concentration at 6 h: 6 hours later. The text has this:
(§1) Chimpanzees are the only test animals that can be persistently infected with hepatitis C viruses. Thus, 2 chimpanzees were selected as test animals for this experiment from the chimpanzee-dedicated facility (Kumamoto Primates Park, Sanwa Kagaku Kenkyusho Colo., Ltd.) where chimpanzees including hepatitis C virus carriers have been artificially bred and propagated over a long period of time. This experiment was examined and approved by the Experiment Review Board in advance in terms of ethics and test contents, and pain inflicted on chimpanzees was eliminated as much as possible during the experiment. Two chimpanzees employed in the experiment are hereafter referred to as Animal No. C33 (the duration of persistent infection with HCV (1a): 22 years) and Animal No. C54 (the duration of persistent infection with HCV (1b): 20 years), respectively.
After an acclimation period of approximately 1 month, KRN7000 was intravenously administered two times to animals at the rate of 10 μg/kg at the interval of 28 days (day 0 and day 28). In order to obtain samples for verifying the responses of chimpanzees to KRN7000 and efficacy of KRN7000 on chronic HCV infections, blood drawing was carried out before and after each administration. The total leukocyte count was measured using an automated blood cell counter Sysmex K4500 (Sysmex Corporation). The leukocyte percentage was determined by coating whole blood onto a fat-free slide glass, immobilizing it thereon, staining with Diff-Quick (International Reagents Corp.), and microscopically examining 200 leukocytes. Neutrophil and lymphocyte counts were calculated by multiplying the obtained values with the total leukocyte count. The NKT cell percentage in the T cells was determined by: staining the whole blood with an anti-human TCR Vα24 antibody (Beckman Coulter), KRN7000 (α-GalCer)-bound human CD1d tetramer, and an anti-human CD3 antibody (Becton Dickinson Japan) that are labeled with different fluorescent dyes; lysing the stained whole blood with the FACS Lysing Solution (Becton Dickinson Japan); immobilizing thereof; and then determining the NKT cell ratio using the FACSCalibur (Becton Dickinson Japan). Cells that had responded to all of the anti-human TCR Vα24 antibody, the tetramer, and the anti-human CD3 antibody were determined to be the NKT cells of the chimpanzees. The activities of alanine aminotransferase (ALT), aspartate aminotransferase (AST), and lactate dehydrogenase (LDH) in serums were assayed using an automatic analyzer. The serum HCV-RNA levels were assayed by RT-PCR using the AMPLICOR® GT HCV monitor (Roche Diagnostics) and branched DNA (bDNA) probe assay using the Quantiplex HCV-RNA 2 (Bayer Corporation). The serum KRN7000 levels were assayed by liquid chromatography and tandem mass spectrometry (LC-MS/MS).

In the next series the test system is hepatitis C virus. The experiment in a line: Serum HCV-RNA levels (RT-PCR, bDNA probe assay) in chimpanzees persistently infected with hepatitis C virus.
Description: as §1
(§2) After an acclimation period of approximately 1 month, KRN7000 was intravenously administered two times to animals at the rate of 10 μg/kg at the interval of 28 days (day 0 and day 28). […] The total leukocyte count was measured using an automated blood cell counter Sysmex K4500 (Sysmex Corporation). The leukocyte percentage was determined by coating whole blood onto a fat-free slide glass, immobilizing it thereon, staining with Diff-Quick (International Reagents Corp.), and microscopically examining 200 leukocytes. Neutrophil and lymphocyte counts were calculated by multiplying the obtained values with the total leukocyte count. The NKT cell percentage in the T cells was determined by: staining the whole blood with an anti-human TCR Vα24 antibody (Beckman Coulter), KRN7000 (α-GalCer)-bound human CD1d tetramer, and an anti-human CD3 antibody (Becton Dickinson Japan) that are labeled with different fluorescent dyes; lysing the stained whole blood with the FACS Lysing Solution (Becton Dickinson Japan); immobilizing thereof; and then determining the NKT cell ratio using the FACSCalibur (Becton Dickinson Japan). […]

The test system of a further series is leukocytes. The experiment in a line: Total leukocyte, neutrophil and lymphocyte counts in blood of HCV-infected chimpanzees. Particulars: 10 μg/kg i.v.
Description: as §1, §2

The next series deals with NKT cells. As to the kind of experiment: NKT cell percentage in the T cells by FACS in HCV-infected chimpanzees.
Description: as §1, with “Two chimpanzees employed in the experiment are hereafter referred to as Animal No. C33 (the duration of persistent infection with HCV (1a): 22 years) and Animal No. C54 (the duration of persistent infection with HCV (1b): 20 years), respectively.” left out
After an acclimation period of approximately 1 month, KRN7000 was intravenously administered two times to animals at the rate of 10 μg/kg at the interval of 28 days (day 0 and day 28). […] The total leukocyte count was measured using an automated blood cell counter Sysmex K4500 (Sysmex Corporation). The leukocyte percentage was determined by coating whole blood onto a fat-free slide glass, immobilizing it thereon, staining with Diff-Quick (International Reagents Corp.), and microscopically examining 200 leukocytes. Neutrophil and lymphocyte counts were calculated by multiplying the obtained values with the total leukocyte count. […]

Series [2] can be described thus: Serum ALT, AST and LDH activities in HCV-infected chimpanzees. As to conditions: both chimpanzees, both stages; peaks 1 day or 3 days after administration, then returned to levels before administration.
Description: as §1, §2

The mark [3] stands for this setting: Animal C33, first administration (10 μg/kg i.v., day 0).
The mark [4] stands for this setting: Animal C33, second administration (10 μg/kg i.v., day 28).
Where [5] appears, read: Animal C54, first administration (10 μg/kg i.v., day 0).
Setting [6] is: Animal C54, second administration (10 μg/kg i.v., day 28).

SMILES strings stand for the structures. Read-outs that look alike come from different tables or passages of the source. Where only a bound is given, the exact number is not on record here.

Take `CCCCCCCCCCCCCCCCCCCCCCCCCC(=O)N[C@@H](CO[C@H]1O[C@H](CO)[C@H](O)[C@H](O)[C@H]1O)[C@H](O)[C@H](O)CCCCCCCCCCCCCC` [KRN7000, (2S,3S,4R)-1-(α-D-galactopyranosyloxy)-2-hexacosanoylamino-3,4-octadecanediol]: in series [1] (setting [3]), the “Concentration in blood (serum KRN7000 level)” value (“Concentration in blood” below) is below 10 ng/mL, the concentration at 15 min was 89 ng/mL and the concentration at 6 h worked out at 38 ng/mL. For the same compound, in series [1] (setting [4]), the “Concentration in blood” value was below 10 ng/mL, the concentration at 15 min is 97 ng/mL and the concentration at 6 h is 58 ng/mL. In addition, in series [1] (setting [5]), the “Concentration in blood” value was below 10 ng/mL, the concentration at 15 min is 129 ng/mL and the concentration at 6 h was 42 ng/mL. Besides, in series [1] (setting [6]), the “Concentration in blood” value is below 10 ng/mL, the concentration at 15 min amounted to 141 ng/mL and the concentration at 6 h stood at 77 ng/mL. Also, the “Time after administration at which maximum serum levels of KRN7000 were detected” value in series [1] (both chimpanzees, both stages, 10 μg/kg i.v.) worked out at 15 min. In the series on hepatitis C virus (10 μg/kg i.v. two times at interval of 28 days), the “Effect on chimpanzees infected with chronic HCV (overall conclusion)” value was “anti-HCV effects”. The “HCV-RNA levels, second administration (day 28) compared with initial administration (day 0)” value in the series on hepatitis C virus (10 μg/kg i.v., day 0 and day 28) was “continuously decreased”. In the series with hepatitis C virus (both chimpanzees (HCV 1a, 1b), 1 day or 3 days after administration, both stages, 10 μg/kg i.v., RT-PCR or bDNA), the “Serum HCV-RNA levels” value is on record as “apparent decreases”. In addition, the Lymphocyte count result with leukocytes (6 hours after the administration, some exceptions) is reported as “decreased”. For the same compound, the Neutrophil count result in the series with leukocytes (both chimpanzees, both stages of administration, 6 hours later) is listed as “increased”. Also, the Total leukocyte count result in the series with leukocytes (in many cases, after administration) is on record as “transiently increased”. Besides, in the series on NKT cells (Test Animal No. C54, after the administration), the “NKT cells, course after disappearance” value is “gradually showed a tendency to recover”. In addition, the “NKT cells (ratio of NKT cell count to T cell count)” value with NKT cells (day following both administrations, both chimpanzees, 10 μg/kg i.v.) is listed as “not detected”. In series [2], the “Serum ALT activity” value was “transiently and mildly elevated”; the “Serum AST activity” value is “transiently and mildly elevated”; the “Serum LDH activity” value was “transiently and mildly elevated”.

For the origin of these results see patent US20050159365A1, “Hepatits c virus inhibitor comprising alpha-glycosylceramide as the active ingredient” (Kirin Beer Kabushiki Kaisha, priority 2002, published 2005).
